Experimental data published in patent US12344623B2, “Thiazolopyridine derivatives as adenosine receptor antagonists” (Merck Patent GmbH, priority 2019, dated 2025).
Where two headings read alike, the source gives them in different places.

Tests used:
Format in all cases: cell-based
human A2B receptor = target: T1, human A2B receptor (Homo sapiens, UniProt P29275); experiment: Functional A2B receptor activity, recombinant HEK293 cells, cAMP (HTRF), agonist NECA; conditions: read-out: Functional A2B receptor activity, HEK293, cAMP, IC50
T1 construct: expressed in transfected cells; host or cells: HEK293
T1 sequence (P29275 1-332): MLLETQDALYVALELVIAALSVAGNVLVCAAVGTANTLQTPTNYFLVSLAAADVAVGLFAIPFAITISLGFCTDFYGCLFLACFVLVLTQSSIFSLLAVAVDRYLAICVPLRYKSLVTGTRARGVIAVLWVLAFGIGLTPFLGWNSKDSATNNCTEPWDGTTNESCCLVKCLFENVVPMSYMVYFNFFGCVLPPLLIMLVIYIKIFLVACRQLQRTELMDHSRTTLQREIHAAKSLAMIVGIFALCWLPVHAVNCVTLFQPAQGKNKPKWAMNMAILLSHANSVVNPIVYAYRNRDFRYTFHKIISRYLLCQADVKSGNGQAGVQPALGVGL
Experimental: (§1) The functional activities of human A2A, A2B, A1 and A3 receptors were determined by quantification of cAMP, being the second messenger for adenosine receptors.
(§2) Cells were seeded into 384-well plates, forskolin, test compounds and agonists (CPA for A1- and IB-MECA for A3-receptor) were added. After 30 min incubation, HTRF reagents (cAMP dynamic 2, Cis Bio) were added and the cellular cAMP levels were determined using the ENVISION (Perkin Elmer) plate reader. Obtained raw data were normalized against the inhibitor control and the neural control (DMSO) and the normalized data were fitted using GeneData software.

human A3 receptor = target: T2, human A3 receptor (Homo sapiens, UniProt P0DMS8); experiment: Functional A3 receptor activity, recombinant CHO cells, cAMP (HTRF), forskolin, agonist IB-MECA; conditions: recombinant CHO cells, forskolin, agonist IB-MECA, read-out: Functional A3 receptor activity, CHO, cAMP, IC50
T2 construct: expressed in transfected cells; host or cells: CHO
T2 sequence (P0DMS8 1-318): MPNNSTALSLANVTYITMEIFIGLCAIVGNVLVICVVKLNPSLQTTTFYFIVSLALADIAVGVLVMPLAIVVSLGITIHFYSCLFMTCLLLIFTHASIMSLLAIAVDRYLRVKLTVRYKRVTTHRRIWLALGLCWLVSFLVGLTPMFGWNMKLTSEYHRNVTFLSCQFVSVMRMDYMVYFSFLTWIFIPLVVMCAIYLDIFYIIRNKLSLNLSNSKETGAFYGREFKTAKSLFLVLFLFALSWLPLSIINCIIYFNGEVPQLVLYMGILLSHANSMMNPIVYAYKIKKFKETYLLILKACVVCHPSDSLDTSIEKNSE
Experimental: as §1
(§3) For human A1 and A3 receptors, recombinant CHO cells, expressing either A1 or A3-receptor, were used. As both receptors couple to Gi proteins, the assay protocol was adapted:
as §2

human A2A receptor = human A2A receptor (Homo sapiens, UniProt P29274); experiment: Functional A2A receptor activity, recombinant HEK293 cells, cAMP (HTRF), agonist NECA; parameters: expressed in transfected cells; host or cells: HEK293; conditions: read-out: Functional A2A receptor activity, HEK293, cAMP, IC50
human A2A receptor, sequence (P29274 whole entry): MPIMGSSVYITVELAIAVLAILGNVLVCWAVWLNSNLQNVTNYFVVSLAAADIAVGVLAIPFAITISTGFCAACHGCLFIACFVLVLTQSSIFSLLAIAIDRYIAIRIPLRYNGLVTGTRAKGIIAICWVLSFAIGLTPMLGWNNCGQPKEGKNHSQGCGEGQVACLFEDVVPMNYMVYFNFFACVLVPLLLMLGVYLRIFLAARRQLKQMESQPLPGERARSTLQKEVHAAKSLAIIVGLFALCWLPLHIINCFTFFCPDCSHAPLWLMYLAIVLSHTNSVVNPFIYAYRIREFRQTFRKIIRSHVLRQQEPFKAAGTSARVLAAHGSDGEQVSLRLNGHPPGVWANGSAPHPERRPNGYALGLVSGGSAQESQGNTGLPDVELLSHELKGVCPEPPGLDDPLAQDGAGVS
Experimental: as §1, §2

human A1 receptor = target: T3, human A1 receptor (Homo sapiens, UniProt P30542); experiment: Functional A1 receptor activity, recombinant CHO cells, cAMP (HTRF), forskolin, agonist CPA; conditions: recombinant CHO cells, forskolin, agonist CPA, read-out: Functional A1 receptor activity, CHO, cAMP, IC50
T3 construct: expressed in transfected cells; host or cells: CHO
T3 sequence (P30542 1-326): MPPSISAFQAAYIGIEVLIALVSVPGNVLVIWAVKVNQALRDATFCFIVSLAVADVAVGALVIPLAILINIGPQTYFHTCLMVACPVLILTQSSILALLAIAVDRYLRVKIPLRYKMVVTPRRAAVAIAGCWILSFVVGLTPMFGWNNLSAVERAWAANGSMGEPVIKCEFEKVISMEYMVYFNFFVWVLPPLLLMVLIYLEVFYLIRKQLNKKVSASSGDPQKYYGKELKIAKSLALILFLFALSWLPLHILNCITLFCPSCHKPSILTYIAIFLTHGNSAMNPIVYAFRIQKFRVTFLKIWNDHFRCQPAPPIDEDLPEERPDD
Experimental: as §1, §3, §2

IC50 (human A2B receptor) [nM] | IC50 (human A3 receptor) [nM] | IC50 (human A2A receptor) [nM] | IC50 (human A1 receptor) [nM] | IC50 (human A1 receptor; cAMP) [nM] | IC50 (human A3 receptor; cAMP) [nM] | Structure (SMILES)
< 100 | > 1000 | < 10 |  |  |  | COc1ncc(C2=CCOCC2)c2sc(NC(=O)c3ccc(C(=O)NCCN4CCC4)cc3)nc12 [Compound 139, N-(2-Azetidin-1-yl-ethyl)-N′-[7-(3,6-dihydro-2H-pyran-4-yl)-4-methoxy-thiazolo[4,5-c]pyridin-2-yl]-terephthalamide]
< 100 | > 1000 | < 10 | < 1000 |  |  | COc1ncc(-c2csc(C)n2)c2sc(NC(=O)N3CCC4(CCOCC4)C3)nc12 [Compound 67, 8-Oxa-2-aza-spiro[4.5]decane-2-carboxylic acid [4-methoxy-7-(2-methyl-thiazol-4-yl)-thiazolo[4,5-c]pyridin-2-yl]-amide]
< 10 | > 1000 | < 10 | < 1000 |  |  | COCCNc1ncc(C(=O)Nc2nc3c(OC)ncc(C4=CCOCC4)c3s2)s1 [Compound 81, N-[7-(3,6-dihydro-2H-pyran-4-yl)-4-methoxy-[1,3]thiazolo[4,5-c]pyridin-2-yl]-2-[(2-methoxyethyl)amino]-1,3-thiazole-5-carboxamide]
< 100 | > 1000 | < 10 | > 1000 |  |  | O=C(Nc1nc2c(OC(F)F)ncc(-c3ccccc3)c2s1)N1CCC2(CCOCC2)C1 [Compound 80, 8-Oxa-2-aza-spiro[4.5]decane-2-carboxylic acid (4-difluoromethoxy-7-phenyl-thiazolo[4,5-c]pyridin-2-yl)-amide]
< 100 | > 1000 | < 10 | > 1000 |  |  | COc1nc(F)c(-c2ccccc2)c2sc(NC(=O)C34CC(C(=O)N(C)CCO)(C3)C4)nc12 [Compound 101, Bicyclo[1.1.1]pentane-1,3-dicarboxylic acid (6-fluoro-4-methoxy-7-phenyl-thiazolo[4,5-c]pyridin-2-yl)-amide (2-hydroxy-ethyl)-methyl-amide]
< 10 | > 1000 | < 10 |  |  |  | COC(=O)N(C)Cc1ccc(C(=O)Nc2nc3c(OC)ncc(C4=CCOCC4)c3s2)cc1 [Compound 167, {4-[7-(3,6-Dihydro-2H-pyran-4-yl)-4-methoxy-thiazolo[4,5-c]pyridin-2-ylcarbamoyl]-benzyl}-methyl-carbamic acid methyl ester]
< 100 | > 1000 | < 10 | < 1000 |  |  | COc1ncc(C2=CCOCC2)c2sc(NC(=O)c3c[nH]c(-c4cccnc4)n3)nc12 [Compound 140, 2-Pyridin-3-yl-1H-imidazole-4-carboxylic acid [7-(3,6-dihydro-2H-pyran-4-yl)-4-methoxy-thiazolo[4,5-c]pyridin-2-yl]-amide]
< 1000 |  | < 10 |  | < 1000 | > 1000 | COc1ccc(C2CCOCC2)c2sc(NC(=O)N3CCOCC3)nc12 [reference compound]
< 100 | > 1000 | < 100 | > 1000 |  |  | COc1ncc(C2=CCOC2)c2sc(NC(=O)N3CCC4(CCOCC4)C3)nc12 [Compound 44, N-[7-(2,5-dihydrofuran-3-yl)-4-methoxy-[1,3]thiazolo[4,5-c]pyridin-2-yl]-8-oxa-2-azaspiro[4.5]decane-2-carboxamide]
< 10 | < 1000 | < 10 |  |  |  | COc1ncc(-c2ccccc2)c2sc(NC(=O)c3cn[nH]c3)nc12 [Compound 117, N-{4-methoxy-7-phenyl-[1,3]thiazolo[4,5-c]pyridin-2-yl}-1H-pyrazole-4-carboxamide]
< 100 | > 1000 | < 10 |  |  |  | COc1ncc(-c2cnn(C(C)(C)c3ccccc3)c2)c2sc(NC(=O)N3CCC4(CCOCC4)C3)nc12 [Compound 163, 8-Oxa-2-aza-spiro[4.5]decane-2-carboxylic acid {4-methoxy-7-[1-(1-methyl-1-phenyl-ethyl)-1H-pyrazol-4-yl]-thiazolo[4,5-c]pyridin-2-yl}-amide]
> 1000 |  | < 100 |  |  | > 1000 | COc1cnc(N2CCOCC2)c2sc(NC(=O)N3CCC4(CCN(C)C4=O)CC3)nc12 [drawing 186, reference compound]
< 100 | > 1000 | < 10 |  |  |  | COc1ncc(-c2cnn(C[C@H]3CCCCO3)c2)c2sc(NC(=O)N3CCC4(CCOCC4)C3)nc12 [Compound 119, 8-Oxa-2-aza-spiro[4.5]decane-2-carboxylic acid (4-methoxy-7-{1-[(R)-1-(tetrahydro-pyran-2-yl)methyl]-1H-pyrazol-4-yl}-thiazolo[4,5-c]pyridin-2-yl)-amide]
 | > 1000 | < 100 | > 1000 |  |  | COc1ncc(-c2cccc(NS(C)(=O)=O)c2)c2sc(NC(=O)N3CCC4(CCOCC4)C3)nc12 [Compound 120, 8-Oxa-2-aza-spiro[4.5]decane-2-carboxylic acid [7-(3-methanesulfonylamino-phenyl)-4-methoxy-thiazolo[4,5-c]pyridin-2-yl]-amide]
< 10 | < 1000 | < 10 |  |  |  | COc1ncc(C2=CCOCC2)c2sc(NC(=O)c3cn[nH]c3)nc12 [Compound 116, N-[7-(3,6-dihydro-2H-pyran-4-yl)-4-methoxy-[1,3]thiazolo[4,5-c]pyridin-2-yl]-1H-pyrazole-4-carboxamide]
< 100 | > 1000 | < 10 |  |  |  | COc1ncc(-c2cnn(C[C@H]3CCCOC3)c2)c2sc(NC(=O)N3CCC4(CCOCC4)C3)nc12 [Compound 104, 8-Oxa-2-aza-spiro[4.5]decane-2-carboxylic acid (4-methoxy-7-{1-[(R)-1-(tetrahydro-pyran-3-yl)methyl]-1H-pyrazol-4-yl}-thiazolo[4,5-c]pyridin-2-yl)-amide]
< 100 | > 1000 | < 10 |  |  |  | COc1ncc(-c2cnn(C[C@@H]3CCCCO3)c2)c2sc(NC(=O)N3CCC4(CCOCC4)C3)nc12 [Compound 118, 8-Oxa-2-aza-spiro[4.5]decane-2-carboxylic acid (4-methoxy-7-{1-[(S)-1-(tetrahydro-pyran-2-yl)methyl]-1H-pyrazol-4-yl}-thiazolo[4,5-c]pyridin-2-yl)-amide]
< 10 | > 1000 | < 10 |  |  |  | COc1ncc(C2=CCOCC2)c2sc(NC(=O)c3cnn(Cc4ncc[nH]4)c3)nc12 [Compound 158, 1-(1H-Imidazol-2-ylmethyl)-1H-pyrazole-4-carboxylic acid [7-(3,6-dihydro-2H-pyran-4-yl)-4-methoxy-thiazolo[4,5-c]pyridin-2-yl]-amide]
< 10 | < 1000 | < 10 |  |  |  | COc1ncc(-c2cnn(Cc3cccnc3)c2)c2sc(NC(=O)c3ccc(C(=O)O)cc3)nc12 [Compound 115, 4-[(4-methoxy-7-{1-[(pyridin-3-yl)methyl]-1H-pyrazol-4-yl}-[1,3]thiazolo[4,5-c]pyridin-2-yl)carbamoyl]benzoic acid]
< 100 | > 1000 | < 10 |  |  |  | COc1ncc(-c2cnn(C[C@@H]3CCCOC3)c2)c2sc(NC(=O)N3CCC4(CCOCC4)C3)nc12 [Compound 105, 8-Oxa-2-aza-spiro[4.5]decane-2-carboxylic acid (4-methoxy-7-{1-[(S)-1-(tetrahydro-pyran-3-yl)methyl]-1H-pyrazol-4-yl}-thiazolo[4,5-c]pyridin-2-yl)-amide]
